Results reported in publication PMC11719397, “Monophthalates of betulinic acid and related pentacyclic triterpenes inhibit efficiently the SOS-mediated nucleotide exchange and impact PI3K/AKT signaling in oncogenic K-RAS4B proteins” (RSC Advances, 2025).
Values after ≈ are worked out from the molar mass of the structure shown.

Tests used:
K-RAS4B wild-type [1] = molecular target: K-RAS4B wild-type (Homo sapiens, UniProt P01116); assay: Nucleotide exchange assay (SOS1-mediated GDP/GTP exchange, GDP-Glo), K-RAS4B wild-type; assay type: biochemical; settings: K-RAS4B GDP/GTP exchange; eight data points, at least three determinations; (*) single determination
K-RAS4B^G12D [2] = molecular target: T1, K-RAS4B^G12D (Homo sapiens, UniProt P01116, G12D); assay: biochemical; settings: K-RAS4B GDP/GTP exchange; eight data points, at least three determinations
Target sequence in this assay (P01116 1-188 isoform P01116-2 G12D): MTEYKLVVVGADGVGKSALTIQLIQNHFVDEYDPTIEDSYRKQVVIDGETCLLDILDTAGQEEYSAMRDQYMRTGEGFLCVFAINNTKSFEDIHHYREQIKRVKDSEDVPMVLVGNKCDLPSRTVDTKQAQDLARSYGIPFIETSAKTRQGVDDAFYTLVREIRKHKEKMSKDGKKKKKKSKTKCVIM

[3] = system: AKT phosphorylation in SNU-1 cells (K-RAS4B^G12D); assay: HTRF AKT phosphorylation assay in SNU-1 cells; assay type: cell-based; settings: Homo sapiens, SNU1, read-out: SNU-1 pAKT inhibition IC50
Description: (§1) For selected betulinic acid derivatives quantitative ERK and AKT phosphorylation was measured in SNU-1 (K-RAS4B^G12D) and A375 cells (K-RAS4B^wt) to determine whether pentacyclic triterpenes act via the RAS-RAF-MEK-ERK or the RAS-PI3K-PDK1-AKT downstream cascade (Table 2). The betulinic acid derivatives tested, had no activity on the ERK pathway, but inhibited AKT phosphorylation with micromolar IC50 values in agreement with literature reports.[50,51] […] No activity was detected in A375 cells carrying a BRAF but no K-RAS mutation.
(§2) SNU-1 cells harbouring the K-RASG12D mutation (primary carcinoma of the stomach), were grown in RPMI medium with 10% FBS (fetal bovine serum) and 1% L-Gln. Cells were plated in white small volume cell culture 384 well microplates (Greiner BioOne GmbH) at a density of 50.000 cells per well/6 μL in RPMI medium with 1% L-glut (serum-free medium). The plated cells were placed in a high humidity incubator (37 °C, 5% CO2 and 90% humidity) to avoid evaporation of the small amount of medium for 3 hours before the compounds were added. With the Echo520 liquid handler the cells were treated with a 3-fold 8-point serial dilution of the compounds, with a top final concentration of 330 μM and a final DMSO concentration of 1%. After compound transfer, cells were incubated for 1 hour in the high humidity incubator before the cells were treated with 3 μL of 9 nM EGF diluted in serum-free medium (final EGF concentration in the well 3 nM) for 15 minutes. The lysis buffer from the Phospho-ERK 1/2 (Thr202/Tyr204)- and the Total ERK1/2 LANCE Ultra TR-FRET Cellular Detection Kit (PerkinElmer Inc.) was prepared to a 4-fold concentration in water. Then 3 μL of the lysis buffer were added to each well and the plates were shaken at 300 rpm for 30 minutes at room temperature. During this incubation the antibody detection mix was prepared according to the manufacturer's protocol. In the final step 3 μL of antibody detection mix were added to each well. The plates were sealed with an aluminium sticky foil and incubated over night at room temperature for 20 hours. The detection was performed with the EnVision2104 Multilabel Reader.

[4] = system: ERK phosphorylation in SNU-1 cells (K-RAS4B^G12D); assay: HTRF ERK phosphorylation assay in SNU-1 cells; assay type: cell-based; settings: Homo sapiens, SNU1, read-out: SNU-1 pERK inhibition IC50
Description: as §1, §2

K-RAS4B G12V = K-RAS4B G12V (Homo sapiens, UniProt P01116, G12V); assay: Nucleotide exchange assay (SOS1-mediated GDP/GTP exchange, GDP-Glo), K-RAS4B G12V; assay type: biochemical; settings: eight data points, at least three determinations, (*) single determination
[5] = system: ERK phosphorylation in A375 cells (K-RAS4B^wt); assay: HTRF ERK phosphorylation assay in A375 cells; assay type: cell-based; settings: Homo sapiens, A-375; A375 cells (K-RAS4B^wt, BRAF mutation); two determinations; read-out: A375 pERK inhibition IC50
Description: as §1, §2

[6] = system: AKT phosphorylation in A375 cells (K-RAS4B^wt); assay: HTRF AKT phosphorylation assay in A375 cells; assay type: cell-based; settings: Homo sapiens, A-375; A375 cells (K-RAS4B^wt, BRAF mutation); two determinations; read-out: A375 pAKT inhibition IC50
Description: as §1, §2

[7] = system: a series of cancer cell lines; parameters: method as in PMID 25909174; settings: read-out: cytotoxic IC50 against a series of cancer cell lines; cited from earlier work
K-RAS4B wild-type [8] = assay: Nucleotide exchange assay (SOS1-mediated GDP/GTP exchange, GDP-Glo), K-RAS4B wild-type; assay type: biochemical; settings: GDP/GTP exchange IC50 of wild-type versus G12D/G12V mutants
SOS = molecular target: T2, SOS (Homo sapiens, UniProt Q07889); assay: Surface plasmon resonance (SPR), SOS; assay type: binding; settings: SOS alone
T2 sequence (Q07889 1-1333): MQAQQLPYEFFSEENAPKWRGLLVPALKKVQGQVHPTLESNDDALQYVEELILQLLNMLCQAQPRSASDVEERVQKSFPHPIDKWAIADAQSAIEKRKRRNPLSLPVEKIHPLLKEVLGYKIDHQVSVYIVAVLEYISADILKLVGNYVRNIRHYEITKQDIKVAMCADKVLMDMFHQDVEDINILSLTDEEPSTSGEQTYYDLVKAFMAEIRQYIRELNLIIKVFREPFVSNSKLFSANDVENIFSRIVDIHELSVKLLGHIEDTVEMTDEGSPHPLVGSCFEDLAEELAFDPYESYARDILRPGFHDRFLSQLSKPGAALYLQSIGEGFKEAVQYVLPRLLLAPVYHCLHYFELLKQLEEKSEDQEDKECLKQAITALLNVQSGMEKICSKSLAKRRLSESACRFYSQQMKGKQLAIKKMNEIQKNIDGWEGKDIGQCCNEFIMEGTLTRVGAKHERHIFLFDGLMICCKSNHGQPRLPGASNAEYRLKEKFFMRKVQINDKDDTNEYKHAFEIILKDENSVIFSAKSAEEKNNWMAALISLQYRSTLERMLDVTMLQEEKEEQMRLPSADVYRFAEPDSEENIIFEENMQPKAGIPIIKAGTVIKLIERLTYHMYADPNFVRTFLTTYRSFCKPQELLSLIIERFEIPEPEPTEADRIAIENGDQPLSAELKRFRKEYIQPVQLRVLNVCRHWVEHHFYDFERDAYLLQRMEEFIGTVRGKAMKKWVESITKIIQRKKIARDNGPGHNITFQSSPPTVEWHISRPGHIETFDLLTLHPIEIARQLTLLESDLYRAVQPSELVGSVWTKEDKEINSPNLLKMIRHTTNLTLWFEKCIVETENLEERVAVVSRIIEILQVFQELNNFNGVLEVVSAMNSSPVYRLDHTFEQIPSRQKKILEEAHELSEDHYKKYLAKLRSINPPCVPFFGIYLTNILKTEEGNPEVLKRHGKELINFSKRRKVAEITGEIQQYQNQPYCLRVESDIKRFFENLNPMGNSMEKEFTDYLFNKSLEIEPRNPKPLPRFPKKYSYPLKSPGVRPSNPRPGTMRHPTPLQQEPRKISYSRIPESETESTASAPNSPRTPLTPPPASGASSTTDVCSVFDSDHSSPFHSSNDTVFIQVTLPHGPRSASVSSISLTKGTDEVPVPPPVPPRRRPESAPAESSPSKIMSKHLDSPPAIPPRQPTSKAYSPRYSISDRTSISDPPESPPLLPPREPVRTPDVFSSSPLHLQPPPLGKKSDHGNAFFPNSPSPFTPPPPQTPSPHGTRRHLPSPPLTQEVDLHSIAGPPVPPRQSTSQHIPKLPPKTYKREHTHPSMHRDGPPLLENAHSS

K-RAS4B^G12D [9] = molecular target: T1, K-RAS4B^G12D; assay: Surface plasmon resonance (SPR), K-RAS4B^G12D; assay type: binding; settings: K-RAS4B^G12D alone
Target sequence in this assay (P01116 1-188 isoform P01116-2 G12D): as the sequence (P01116 1-188 isoform P01116-2 G12D) above

K-RAS4B^G12D [10] = molecular target: T1, K-RAS4B^G12D; assay: cell-based; parameters: a fusion protein of LgBiT and full-length RAS; a fusion protein of SmBiT(q) and full-length RAS in cells; expressed in transfected cells; host or cells: HEK239T (so in the source); settings: live cells; displacement of BI2852 from the K-Ras4B SI/II binding-site; read-out: K-RAS4B^G12D NanoBRET TE KD
Description: (§3) To obtain further information on the mode of action, selected GDP/GTP exchange inhibitors were studied in additional assays (Table 3). A target engagement assay, which is based on bioluminescence resonance energy transfer (BRET), was used to measure target engagement at protein complexes in live cells (Fig. 5a). The BRET effect results from an energy transfer between the target luciferase fusion protein and a cell-permeable fluorescent tracer in intact cells.
(§4) Fig. 5 Schematic illustrations of the RAS cellular target engagement and RAS:SOS protein–protein interaction assay. (a) NanoBRET target engagement (TE) assay: when the fusion proteins LgBiT-RAS and SmBiT(q)-RAS interact in live-cells, they form an active luciferase as a BRET donor. The BRET receptor is a fluorescent NanoBRET® tracer that binds specifically to K-RAS. K-RAS binders displace the tracer and reduce the BRET signal in a dose-dependent manner.
(§5) The NanoBRET® TE Intracellular RAS Assay uses NanoBiT® Technology, a structural complementation system comprised of a large luciferase subunit (LgBiT) and a small complementary peptide (SmBiT(q)). Specifically, a fusion protein of LgBiT and full-length RAS is co-expressed with a fusion protein of SmBiT(q) and full-length RAS in cells. When the RAS proteins interact and form multimers, the LgBiT and SmBiT(q) subunits come together to form an active luciferase enzyme that serves as the BRET donor. The energy acceptor is a cell-permeable fluorescent NanoBRET® tracer that binds specifically to RAS. […] After mixing the plate for 1 min and incubation at room temperature for 15 min 1 μL of NanoBRET TE RAS Tracer 01 (final concentration 1 μM) was added followed by another mixing step. After 2 h incubation (37 °C, 5% CO2) and 15 min at room temperature 5 μL of NanoBRET™ Nano-Glo® substrate was added followed by a mixing step.
Target sequence in this assay (P01116 1-188 isoform P01116-2 G12D): as the sequence (P01116 1-188 isoform P01116-2 G12D) above
Target sequence in this assay (P01116 1-188 isoform P01116-2 G12D): as the sequence (P01116 1-188 isoform P01116-2 G12D) above

K-RAS4B^wt = molecular target: T3, K-RAS4B^wt (Homo sapiens, UniProt P01116); assay: NanoBRET target engagement assay, K-RAS4B^wt (displacement of BI2852 tracer from SI/SII site); assay type: cell-based; settings: live cells; displacement of BI2852 from the K-Ras4B SI/II binding-site; read-out: K-RAS4B^wt NanoBRET TE KD
T3 construct: a fusion protein of LgBiT and full-length RAS; a fusion protein of SmBiT(q) and full-length RAS in cells; expressed in transfected cells; host or cells: HEK239T (so in the source)
Description: as §3, §4, §5

[11] = molecular target: (GTP)K-RAS4B^wt:SOS1 complex (Homo sapiens, UniProt P01116+Q07889); assay: HTRF K-RAS^wt:SOS protein-protein interaction assay
(GTP)K-RAS4B^wt:SOS1 complex, sequence (P01116 1-188 isoform P01116-2, one chain of several): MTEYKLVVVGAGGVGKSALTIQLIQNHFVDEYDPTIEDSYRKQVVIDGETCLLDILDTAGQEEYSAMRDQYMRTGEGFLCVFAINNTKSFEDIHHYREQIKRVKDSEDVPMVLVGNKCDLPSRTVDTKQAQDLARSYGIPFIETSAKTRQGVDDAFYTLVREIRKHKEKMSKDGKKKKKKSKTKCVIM
Description: The interaction of (GTP)K-RAS4B^wt and SOS was measured with a HTRF assay using an SOS-specific antibody labeled with terbium cryptate as HTRF (homogeneous time-resolved fluorescence) donor and a K-RAS4B^wt specific antibody labeled with an HTRF acceptor (XL665).[52]
To test the compounds effect on the interaction of K-RAS and SOS1 proteins a commercial assay from Revvity (product code 64[sequence]) was used. The K-RAS WT/SOS1 PPI assay includes tagged human recombinant partners (K-RAS WT and SOS1) and labelled anti-tag reagents for HTRF detection. Without an inhibitor, K-RAS WT loaded with GTP binds to SOS1, and the binding of each detection reagent to its tagged target generates an HTRF signal. In the presence of K-RAS WT/SOS1 inhibitors or GTP competitors, the HTRF signal decreases.
After an incubation step for 10 min at room temperature 3 μL Tag1-KRAS protein was added followed by 7.5 μL detection mix containing anti-Tag2 antibody labeled with Terbium cryptate and anti-Tag1 antibody labeled with XL665. […] IC50 values were determined from the sigmoidal dose response curves with the Scigilian Analyze software (Scigilian, Monteral, Canada).

K-RAS4B G12V, sequence (P01116 1-188 isoform P01116-2 G12V): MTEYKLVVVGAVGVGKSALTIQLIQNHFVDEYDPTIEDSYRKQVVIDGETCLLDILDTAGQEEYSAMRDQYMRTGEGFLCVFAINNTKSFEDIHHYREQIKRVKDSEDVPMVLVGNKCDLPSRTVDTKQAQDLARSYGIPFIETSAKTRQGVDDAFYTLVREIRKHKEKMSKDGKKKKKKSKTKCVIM
K-RAS4B wild-type (Homo sapiens, UniProt P01116), sequence (P01116 1-188 isoform P01116-2): as the sequence (P01116 1-188 isoform P01116-2, one chain of several) above
T3 sequence (P01116 1-188 isoform P01116-2): as the sequence (P01116 1-188 isoform P01116-2, one chain of several) above
T3 sequence (P01116 1-188 isoform P01116-2): as the sequence (P01116 1-188 isoform P01116-2, one chain of several) above

| SMILES | IC50 (K-RAS4B wild-type [1]) [µM] | IC50 (K-RAS4B^G12D [2]) [µM] | IC50 [3] [µM] | IC50 [4] [µM] | IC50 (K-RAS4B G12V) [µM] | IC50 [5] [µM] | solubility (Solubility) [µM] | IC50 [6] [µM] | IC50 [7] [µM] | selectivity factor, mutant versus K-RAS4B^wt (K-RAS4B wild-type [8]) | Kd (SOS) [µM] | Kd (K-RAS4B^G12D [9]) [µM] | Kd (K-RAS4B^G12D [10]) [µM] | Kd (K-RAS4B^wt) [µM] | Kd [11] [µM] |
| --- | --- | --- | --- | --- | --- | --- | --- | --- | --- | --- | --- | --- | --- | --- | --- |
| C=C(C)[C@@H]1CC[C@]2(C(=O)O)CC[C@]3(C)[C@H](CC[C@@H]4[C@@]5(C)CC[C@H](OC(=O)c6ccccc6C(=O)O)C(C)(C)[C@@H]5CC[C@]43C)[C@@H]12 [Compound 19] | 15.3 ± 3.8 | 10.4 ± 4.7 | 19 | > 300 | 16.6 ± 5.2 | > 1000 | 191 (≈ 116 µg/mL) | > 1000 | ≤ 10 | – | – | – | – | – | – |
| C=C(C)[C@@H]1CC[C@]2(C(=O)O)CC[C@]3(C)[C@H](CC[C@@H]4[C@@]5(C)CC[C@H](OC(=O)CC(C)(C)C(=O)O)C(C)(C)[C@@H]5CC[C@]43C)[C@@H]12 [Compound 28, bevirimat, reference compound] | 2.15 ± 0.17 | 0.59 ± 0.19 | – | – | 0.61 ± 0.14 | – | – | – | – | 3–4 | > 1000 | > 300 | – | – | – |
| COc1cc(C(=O)O)c(C(=O)OC2CCC3(C)C(CCC4(C)C3CC=C3C5CC(C)(C)CCC5(C(=O)O)CCC34C)C2(C)C)cc1OC (stereo not shown) [Compound 47] | 2.71 ± 1.3 | 1.61 ± 0.85 | – | – | 2.9 ± 0.51 | – | 302 (≈ 201 µg/mL) | – | – | – | – | – | > 50 | 39 | > 50 |
